# Results reported in patent US9353144B2, “Vascular leakage inhibitor” (INDUSTRY-ACADEMIC COOPERATION FOUNDATION, YONSEI UNIVERSITY, priority 2011, dated 2016).
# What was measured:
# [1] = test system: HRECs (Human Retinal Endothelial Cells); assay: Ability to inhibit apoptosis of Sac-1009, Sac-1104 and Sac-1019 according to concentration (serum removal, MTT assay); type: cell-based; conditions: for inhibition of apoptosis of HRECs, concentration dependence: serum-free EGM, 0, 0.1, 1, 5 and 10 μg/ml; for inhibition of apoptosis of HRECs, concentration dependence / concentration of the most effective ability to inhibit apoptosis: MTT after 48 hours, FIG. 3; for concentration of the most effective ability to inhibit apoptosis: serum-free EGM, tested 0-10 μg/ml; for cell viability of HRECs in a serum depletion environment: summary of test examples 1 and 2
# Method: HRECs (3×10^5 cells/well) were seeded on a 24-well plate in EGM medium containing 20% fetal bovine serum. The next day, the cells were transferred to a serum depletion EGM medium containing Sac-1009, Sac-1104 or Sac-1019. Sac-1009, Sac-1104 and Sac-1019 were added into the medium at a concentration of 0, 0.1, 1, 5 or 10 μg/mL, respectively. Cell viability was determined by MTT assay 48 hours later.
# (§1) Human retinal endothelial cells (HRECs) purchased from Cell Systems (USA) were seeded on a 100 mm culture dish containing EGM medium (Life Technologies, USA) containing 20% (w/v) fetal bovine serum (FBS, HyClone, Canada), 100 units/mL penicillin (Invitrogen, USA), 100 μg/mL streptomycin (Invitrogen, USA), 3 ng/mL fibroblast growth factor (Upstate Biotechnology, USA) and 5 units/mL heparin and cultured in a 5% CO2 incubator at 37° C.
# After apoptosis was induced by removing serum from the medium of vascular endothelial cells, Sac-1009, Sac-1104, and Sac-1019 were applied to cells to measure the ability to inhibit apoptosis. Vascular endothelial cells HRECs (3×10^5 cells/well) were plated on a 24-well plate in which 1 ml of EGM medium containing 20% fetal bovine serum was present. The next day, the cells were transferred to serum-free EGM media containing Sac-1009, Sac-1104, and Sac-1019. Sac-1009, Sac-1104, and Sac-1019 were added at concentrations of 0, 0.1, 1, 5, and 10 μg/ml. After 48 hours, cell viability was determined by MTT assay.
# [2] = test system: HRECs (Human Retinal Endothelial Cells); assay: Screening of synthesized derivatives for ability to inhibit serum depletion-induced vascular endothelial cell apoptosis (MTT assay, cell morphology); type: cell-based; conditions: serum-free, 10 μg/ml; for ability to inhibit apoptosis, ranking among synthetic derivatives and control groups: comparison with control groups; for ability to inhibit apoptosis compared with Sac-1004: relative to control Sac-1004
# Method: FIGS. 1a-1c and FIGS. 2a-2c show the result of screening Rk1 analogs that protect HRECs (Human Retinal Endothelial Cells) from serum depletion-induced apoptosis. HRECs (3×10^5 cells/well) were seeded on a 24-well plate in EGM9 medium containing 20% fetal bovine serum. The next day, the cells were transferred to a medium containing 10 μg/mL of the synthesized compound. Cell viability was determined by MTT assay 48 hours later. […] Con is indicative of cells treated with DMSO.
# as §1
# Based on the previous researches conducted by the present inventors, synthesized derivatives of Rk1 having a steroid backbone and having an ability to inhibit vascular endothelial cell apoptosis were screened. Vascular endothelial cells HRECs (3×10^5 cells/well) were plated on a 24-well plate in which 1 ml of EGM medium containing 20% fetal bovine serum was present. The next day, the cells were transferred to serum-free EGM media containing 10 μg/ml of the compounds synthesized in Synthetic Examples 1 and 2. After 24 hours, cell viability was determined by MTT assay (Mosmann T, Journal of Immunological Methods 65(1-2):5563(1983); Cory A H, et al., Cancer Communications 3(7):20712(1991)).
# [3] = test system: HRECs (Human Retinal Endothelial Cells); assay: Screening based on change in cytoskeleton: VEGF-induced actin stress fibers, rhodamine phalloidin staining; type: cell-based; conditions: for ability to inhibit the formation of actin stress fibers induced by VEGF: confluent HRECs pretreated with 10 μg/mL compound for 1 hour before 20 ng/ml VEGF, FIGS. 4 and 5; for abilities to inhibit the formation of actin stress fibers induced by VEGF and maintain the cortical actin ring structure, ranking: confluent HRECs, pretreated 1 hour, 20 ng/ml VEGF
# Method: Confluent HRECs were pretreated with the compounds (10 μg/mL) for 60 minutes before treating with 20 ng/mL VEGF. The cells were then stained with rhodamine phalloidin.
# as §1
# It is known that the change in the actin structure of the cytoskeleton is closely related with the permeability of vascular endothelial cells. Increased permeability of vascular endothelial cells leads to an increase in actin stress fibers and a decrease in cortical actin ring structures. Based on this, the ability to inhibit vascular endothelial permeability of the synthesized derivatives of Rk1 was screened. Confluent HRECs were pretreated with […] the synthesized compounds for 1 hour before the treatment with 20 ng/ml VEGF (Upstate Biotechnology). Then, the cells were fixed with 4% paraformaldehyde for 20 minutes at room temperature, and washed 3 times with PBS (pH 7.4). Then, the cells were permeabilized with 0.1% Triton X-100/PBS, and reacted with 0.1 mg/ml rhodamine phalloidin (Molecular Probes) for 1 hour. Then, the cells were observed under a fluorescence microscope (Olympus).
# [4] = test system: HRECs (Human Retinal Endothelial Cells); conditions: cited from earlier work; for ability to inhibit apoptosis (derivatives of previous researches, control groups): obtained in the previous researches by the inventors (Korean Patent Application Publication No. 2011-0047170); for ability to inhibit apoptosis, comparison in the previous researches: relative to Rk1 or to other earlier derivatives
Compound,"inhibition of apoptosis of HRECs, concentration dependence [1]",concentration of the most effective ability to inhibit apoptosis [1] [µg/mL],cell viability of HRECs in a serum depletion environment [1],"ability to inhibit apoptosis, ranking among synthetic derivatives and control groups [2]",ability to inhibit apoptosis compared with Sac-1004 [2],ability to inhibit the formation of actin stress fibers induced by VEGF [3],"abilities to inhibit the formation of actin stress fibers induced by VEGF and maintain the cortical actin ring structure, ranking [3]","ability to inhibit apoptosis (derivatives of previous researches, control groups) [4]","ability to inhibit apoptosis, comparison in the previous researches [4]"
CC(=O)OC[C@H]1OC(O[C@H]2CC[C@@]3(C)C(=CCC4C3CC[C@@]3(C)C4CC[C@@H]3/C(C)=N/OC3C=CCCC3)C2)C=C[C@@H]1OC(C)=O (stereo partly drawn) [Sac-1104],concentration-dependent manner,10,increase cell viability,the most excellent,equivalent to that of Sac-1004,inhibit the formation of actin stress fibers induced by VEGF,the most excellent,–,–
CC(=O)OC[C@H]1OC(O[C@H]2CC[C@@]3(C)C(=CCC4C3CC[C@@]3(C)C4CC[C@@H]3/C(C)=N/OC3CCCC3)C2)C=C[C@@H]1OC(C)=O (stereo partly drawn) [Sac-1019],concentration-dependent manner,10,increase cell viability,the most excellent,equivalent to that of Sac-1004,inhibit the formation of actin stress fibers induced by VEGF,the most excellent,–,–
CC(=O)OCC1OC(OC2CCC3(C)C(=CCC4C3CCC3(C)C(C(C)CCCC(C)C)CCC43)C2)C=CC1OC(C)=O (stereo not drawn) [Sac-0601],–,–,–,–,–,–,–,having an ability to inhibit apoptosis,equivalent to that of Rk1
COC(=O)CCC/C=C(\C)[C@H]1CCC2C3CC=C4C[C@@H](OC5C=C[C@H](OC(C)=O)[C@@H](COC(C)=O)O5)CC[C@]4(C)C3CC[C@@]21C (stereo partly drawn) [Sac-1004],–,–,–,–,–,–,–,having an ability to inhibit apoptosis,the most excellent
